How the values were obtained:
[1] = test system: L-O2 human normal liver cells; test: MTT assay, toxicity against L-O2 normal cells; assay type: cell-based; conditions: Homo sapiens, 72 h incubation, mean of three independent experiments
Description: (§1) HepG-2 human hepatocellular carcinoma cells and L-O2 human normal liver cells were maintained in DMEM culture medium supplemented with 10% FBS at 37 °C under a humidified atmosphere with 5% CO2.
(§2) HepG-2 and L-O2 cells in logarithmic growth phase were seeded into a 96-well plate at 5 × 10^3/well/200 µL. After 12 h, compounds at different concentrations were added and incubated for 72 h at 37 °C, 5% CO2. Then, 20 µL MTT (5 mg/mL) was added into each well and incubated for 4 h. The supernatant was discarded, and the precipitate was dissolved with DMSO. The absorbance of the optical density (OD) at 570 nm was detected using a microplate reader and the IC50 was calculated with GraphPad Prism 5.

[2] = test system: HepG-2 human hepatocellular carcinoma cells; test: MTT assay, proliferation of HepG-2 cells; assay type: cell-based; conditions: Homo sapiens, HepG2, 72 h incubation, mean of three independent experiments
Description: as §1, §2

CC(=O)OC(C)(C)/C=C/C(=O)[C@](C)(O)C1[C@H](OC(=O)/C=C/c2ccc(C#N)cc2)C[C@@]2(C)C3CC=C4C(C[C@H](O)C(=O)C4(C)C)[C@]3(C)C(=O)C[C@]12C (stereo partly drawn) [Compound 3p, (2S,9R,13R,14S,16R)-17-((R,E)-6-Acetoxy-2-hydroxy-6-methyl-3-oxohept-4-en-2-yl)-2-hydroxy-4,4,9,13,14-pentamethyl-3,11-dioxo-2,3,4,7,8,9,10,11,12,13,14,15,16,17-tetradecahydro-1H-cyclopenta[a]phenanthren-16-yl (E)-3-(4-cyanophenyl)acrylate]
IC50 [1]: 1.47 ± 0.36 µM
IC50 [2]: 2.34 ± 0.91 µM

COc1cc(/C=C/C(=O)O[C@@H]2C[C@@]3(C)C4CC=C5C(C[C@H](O)C(=O)C5(C)C)[C@]4(C)C(=O)C[C@]3(C)C2[C@@](C)(O)C(=O)/C=C/C(C)(C)OC(C)=O)cc(OC)c1 (stereo partly drawn) [Compound 3q, (2S,9R,13R,14S,16R)-17-((R,E)-6-Acetoxy-2-hydroxy-6-methyl-3-oxohept-4-en-2-yl)-2-hydroxy-4,4,9,13,14-pentamethyl-3,11-dioxo-2,3,4,7,8,9,10,11,12,13,14,15,16,17-tetradecahydro-1H-cyclopenta[a]phenanthren-16-yl (E)-3-(3,5-dimethoxyphenyl)acrylate]
IC50 [1]: 5.25 ± 1.63 µM
IC50 [2]: 3.85 ± 0.63 µM

CC(=O)OC(C)(C)/C=C/C(=O)[C@](C)(O)C1[C@H](OC(=O)/C=C/c2ccccc2)C[C@@]2(C)C3CC=C4C(C[C@H](OC(=O)/C=C/c5ccccc5)C(=O)C4(C)C)[C@]3(C)C(=O)C[C@]12C (stereo partly drawn) [Compound 4, (2S,9R,13R,14S,16R)-17-((R,E)-6-Acetoxy-2-hydroxy-6-methyl-3-oxohept-4-en-2-yl)-4,4,9,13,14-pentamethyl-3,11-dioxo-2,3,4,7,8,9,10,11,12,13,14,15,16,17-tetradecahydro-1H-cyclopenta[a]phenanthrene-2,16-diyl (2E,2′E)-bis(3-phenylacrylate)]
IC50 [1]: > 20 µM
IC50 [2]: > 20 µM

CC(=O)OC(C)(C)C=CC(=O)C(C)(O)C1C(OC(=O)CCC(=O)NCCOc2no[n+]([O-])c2S(=O)(=O)c2ccccc2)CC2(C)C3CC=C4C(CC(O)C(=O)C4(C)C)C3(C)C(=O)CC12C [Compound 9a, 3-((l1-oxidanyl)(oxo)(phenyl)-l5-sulfanyl)-4-(2-(4-(((9R,13R,14S,16R)-17-((R,E)-6-acetoxy-2-hydroxy-6-methyl-3-oxohept-4-en-2-yl)-2-Hydroxy-4,4,9,13,14-pentamethyl-3,11-dioxo-2,3,4,7,8,9,10,11,12,13,14,15,16,17-tetradecahydro-1H-cyclopenta[a]phenanthren-16-yl)oxy)-4-oxobutanamido)ethoxy)-1,2,5-oxadiazole 2-oxide]
IC50 [1]: 0.69 ± 0.43 µM
IC50 [2]: 0.46 ± 0.14 µM

CC(=O)OC(C)(C)/C=C/C(=O)[C@](C)(O)C1[C@H](OC(=O)CCC(=O)NCCCOc2no[n+]([O-])c2S(=O)(=O)c2ccccc2)C[C@@]2(C)C3CC=C4C(CC(O)C(=O)C4(C)C)[C@]3(C)C(=O)C[C@]12C (stereo partly drawn) [Compound 9b, 4-(3-(4-(((9R,13R,14S,16R)-17-((R,E)-6-Acetoxy-2-hydroxy-6-methyl-3-oxohept-4-en-2-yl)-2-hydroxy-4,4,9,13,14-pentamethyl-3,11-dioxo-2,3,4,7,8,9,10,11,12,13,14,15,16,17-tetradecahydro-1H-cyclopenta[a]phenanthren-16-yl)oxy)-4-oxobutanamido)propoxy)-3-(phenylsulfonyl)-1,2,5-oxadiazole 2-oxide]
IC50 [1]: 0.8 ± 0.4 µM
IC50 [2]: 0.53 ± 0.01 µM

CC(=O)OC(C)(C)/C=C/C(=O)[C@](C)(O)C1[C@H](OC(=O)CCC(=O)N2CCN(CCOc3no[n+]([O-])c3S(=O)(=O)c3ccccc3)CC2)C[C@@]2(C)C3CC=C4C(CC(O)C(=O)C4(C)C)[C@]3(C)C(=O)C[C@]12C (stereo partly drawn) [Compound 9c, 4-(2-(4-(4-(((9R,13R,14S,16R)-17-((R,E)-6-Acetoxy-2-hydroxy-6-methyl-3-oxohept-4-en-2-yl)-2-hydroxy-4,4,9,13,14-pentamethyl-3,11-dioxo-2,3,4,7,8,9,10,11,12,13,14,15,16,17-tetradecahydro-1H-cyclopenta[a]phenanthren-16-yl)oxy)-4-oxobutanoyl)piperazin-1-yl)ethoxy)-3-(phenylsulfonyl)-1,2,5-oxadiazole 2-oxide]
IC50 [1]: 2.61 ± 1.77 µM
IC50 [2]: 0.92 ± 0.16 µM

CC(=O)OC(C)(C)/C=C/C(=O)[C@](C)(O)C1[C@H](OC(=O)CCC(=O)OCCOc2no[n+]([O-])c2S(=O)(=O)c2ccccc2)C[C@@]2(C)C3CC=C4C(CC(O)C(=O)C4(C)C)[C@]3(C)C(=O)C[C@]12C (stereo partly drawn) [Compound 10a, 4-(2-((4-(((9R,13R,14S,16R)-17-((R,E)-6-Acetoxy-2-hydroxy-6-methyl-3-oxohept-4-en-2-yl)-2-hydroxy-4,4,9,13,14-pentamethyl-3,11-dioxo-2,3,4,7,8,9,10,11,12,13,14,15,16,17-tetradecahydro-1H-cyclopenta[a]phenanthren-16-yl)oxy)-4-oxobutanoyl)oxy)ethoxy)-3-(phenylsulfonyl)-1,2,5-oxadiazole 2-oxide]
IC50 [1]: 2.04 ± 0.67 µM
IC50 [2]: 0.82 ± 0.33 µM

CC(=O)OC(C)(C)/C=C/C(=O)[C@](C)(O)C1[C@H](OC(=O)CCC(=O)OCCCCOc2no[n+]([O-])c2S(=O)(=O)c2ccccc2)C[C@@]2(C)C3CC=C4C(CC(O)C(=O)C4(C)C)[C@]3(C)C(=O)C[C@]12C (stereo partly drawn) [Compound 10c, 4-(4-((4-(((9R,13R,14S,16R)-17-((R,E)-6-Acetoxy-2-hydroxy-6-methyl-3-oxohept-4-en-2-yl)-2-hydroxy-4,4,9,13,14-pentamethyl-3,11-dioxo-2,3,4,7,8,9,10,11,12,13,14,15,16,17-tetradecahydro-1H-cyclopenta[a]phenanthren-16-yl)oxy)-4-oxobutanoyl)oxy)butoxy)-3-(phenylsulfonyl)-1,2,5-oxadiazole 2-oxide]
IC50 [1]: 2.1 ± 1.41 µM
IC50 [2]: 0.52 ± 0.09 µM

CC(=O)OC(C)(C)/C=C/C(=O)[C@](C)(O)C1[C@H](OC(=O)CCC(=O)OCCCCCOc2no[n+]([O-])c2S(=O)(=O)c2ccccc2)C[C@@]2(C)C3CC=C4C(CC(O)C(=O)C4(C)C)[C@]3(C)C(=O)C[C@]12C (stereo partly drawn) [Compound 10d, 4-((5-((4-(((9R,13R,14S,16R)-17-((R,E)-6-Acetoxy-2-hydroxy-6-methyl-3-oxohept-4-en-2-yl)-2-hydroxy-4,4,9,13,14-pentamethyl-3,11-dioxo-2,3,4,7,8,9,10,11,12,13,14,15,16,17-tetradecahydro-1H-cyclopenta[a]phenanthren-16-yl)oxy)-4-oxobutanoyl)oxy)pentyl)oxy)-3-(phenylsulfonyl)-1,2,5-oxadiazole 2-oxide]
IC50 [1]: 2.62 ± 0.52 µM
IC50 [2]: 0.64 ± 0.26 µM

CC(=O)OC(C)(C)/C=C/C(=O)[C@](C)(O)C1[C@H](OC(=O)CCC(=O)OCCCCCCOc2no[n+]([O-])c2S(=O)(=O)c2ccccc2)C[C@@]2(C)C3CC=C4C(CC(O)C(=O)C4(C)C)[C@]3(C)C(=O)C[C@]12C (stereo partly drawn) [Compound 10e, 4-((6-((4-(((9R,13R,14S,16R)-17-((R,E)-6-Acetoxy-2-hydroxy-6-methyl-3-oxohept-4-en-2-yl)-2-hydroxy-4,4,9,13,14-pentamethyl-3,11-dioxo-2,3,4,7,8,9,10,11,12,13,14,15,16,17-tetradecahydro-1H-cyclopenta[a]phenanthren-16-yl)oxy)-4-oxobutanoyl)oxy)hexyl)oxy)-3-(phenylsulfonyl)-1,2,5-oxadiazole 2-oxide]
IC50 [1]: 3.21 ± 0.09 µM
IC50 [2]: 1.15 ± 0.24 µM

CC(=O)OC(C)(C)/C=C/C(=O)[C@](C)(O)C1[C@H](OC(=O)CCC(=O)OCCCCCCCOc2no[n+]([O-])c2S(=O)(=O)c2ccccc2)C[C@@]2(C)C3CC=C4C(CC(O)C(=O)C4(C)C)[C@]3(C)C(=O)C[C@]12C (stereo partly drawn) [Compound 10f, 4-((7-((4-(((9R,13R,14S,16R)-17-((R,E)-6-Acetoxy-2-hydroxy-6-methyl-3-oxohept-4-en-2-yl)-2-hydroxy-4,4,9,13,14-pentamethyl-3,11-dioxo-2,3,4,7,8,9,10,11,12,13,14,15,16,17-tetradecahydro-1H-cyclopenta[a]phenanthren-16-yl)oxy)-4-oxobutanoyl)oxy)heptyl)oxy)-3-(phenylsulfonyl)-1,2,5-oxadiazole 2-oxide]
IC50 [1]: 3.25 ± 0.4 µM
IC50 [2]: 0.83 ± 0.38 µM

CC(=O)OC(C)(C)/C=C/C(=O)[C@](C)(O)C1[C@H](OC(=O)CCC(=O)OCCCCCCCCOc2no[n+]([O-])c2S(=O)(=O)c2ccccc2)C[C@@]2(C)C3CC=C4C(CC(O)C(=O)C4(C)C)[C@]3(C)C(=O)C[C@]12C (stereo partly drawn) [Compound 10g, 4-((8-((4-(((9R,13R,14S,16R)-17-((R,E)-6-Acetoxy-2-hydroxy-6-methyl-3-oxohept-4-en-2-yl)-2-hydroxy-4,4,9,13,14-pentamethyl-3,11-dioxo-2,3,4,7,8,9,10,11,12,13,14,15,16,17-tetradecahydro-1H-cyclopenta[a]phenanthren-16-yl)oxy)-4-oxobutanoyl)oxy)octyl)oxy)-3-(phenylsulfonyl)-1,2,5-oxadiazole 2-oxide]
IC50 [1]: 4.29 ± 0.66 µM
IC50 [2]: 1.19 ± 0.55 µM

CC(=O)OC(C)(C)/C=C/C(=O)[C@](C)(O)C1[C@H](OC(=O)CCC(=O)OCCCCCCCCCOc2no[n+]([O-])c2S(=O)(=O)c2ccccc2)C[C@@]2(C)C3CC=C4C(CC(O)C(=O)C4(C)C)[C@]3(C)C(=O)C[C@]12C (stereo partly drawn) [Compound 10h, 4-((9-((4-(((9R,13R,14S,16R)-17-((R,E)-6-Acetoxy-2-hydroxy-6-methyl-3-oxohept-4-en-2-yl)-2-hydroxy-4,4,9,13,14-pentamethyl-3,11-dioxo-2,3,4,7,8,9,10,11,12,13,14,15,16,17-tetradecahydro-1H-cyclopenta[a]phenanthren-16-yl)oxy)-4-oxobutanoyl)oxy)nonyl)oxy)-3-(phenylsulfonyl)-1,2,5-oxadiazole 2-oxide]
IC50 [1]: 1.17 ± 0.08 µM
IC50 [2]: 1.15 ± 0.24 µM
